Experimental data reported in patent publication US10716821B2, “Use of plant extracts against herpes simplex virus” (UNIVERSITÉ DU QUÉBEC À CHICOUTIMI, priority 2013, dated 2020).

System: HSV-1
Test: HSV-1 plaque reduction, method D: replication period
Format: cell-based, herpes simplex virus type-1
Protocol: Plaque assays were performed with monolayer cultures of Vero cells in 24-well culture plates. For plaque reduction assay, cell monolayer was infected with virus (30 pfu/well) and incubated at 37° C. with 5% CO2 for one hour. The infected cell monolayer was then washed with PBS and overlaid with overlapping solution (maintenance medium containing 1% methylcellulose and various concentrations of indicated compounds). After 72 h of incubation at 37° C., cell monolayer was fixed with 5% paraformaldehyde and stained with 0.8% crystal violet. Plaques were counted and the percentage of inhibition was calculated as [(Pc−Pe)/Pc]100, where Pc and Pe refer to the plaque number in the absence and presence of the compound, respectively. The minimal concentration of compounds required to reduce 50% of plaque numbers (IC50) was also calculated. Cells and viruses (HSV-1) were incubated with acyclovir and various extracts at different stages during the viral infection cycle in order to determine the antiviral action mode (Koch et al., 2008). (A) For virus pretreatment assay, the virus suspension was incubated in a medium containing different concentrations of the extracts for one hour at 37° C. prior to infection of Vero cells. […] The antiviral activity of non-cytotoxic plant extracts was determined against HSV-1 in vitro. […] Then, the cells were washed and quantified using resazurin.

## Nc1nc2c(ncn2COCCO)c(=O)[nH]1 [Acyclovir]
Human alphaherpesvirus 1, 72 h, at 100 μg/ml, replication period (extracts added after infection, stay 3 days on cells), Vero cells, read-out: Inhibitory percentage of lysis plaques, D
  inhibition at 100 µg/mL: 100%
Dose of 0.75 μg/ml
  Protection of VERO cells against infection (positive control): protects VERO cells against infection
